Measurements taken from the CheMixHub viscosity set.

Assay: xn = mol fraction of the nth substance listed

S=C=S + Cc1ccccc1
298.15 K, 101 kPa
Settings	viscosity [mPa·s]
x1 = 0.1	0.5295
x1 = 0.2	0.5063
x1 = 0.3	0.4837
x1 = 0.4	0.462
x1 = 0.5	0.4412
x1 = 0.6	0.4217
x1 = 0.7	0.4035
x1 = 0.8	0.3868
x1 = 0.9	0.3718
x2 = 0.06082	0.37
x2 = 0.3361	0.417
x2 = 0.587	0.469

CCOC(=O)CC(C)=O + CCCO
viscosity [mPa·s], 100 kPa
Settings	x1 = 0.0644	x1 = 0.1297	x1 = 0.2035	x1 = 0.2808	x1 = 0.3716	x1 = 0.4706	x1 = 0.5808	x1 = 0.7083	x1 = 0.8379
293.15 K	1.907	1.663	1.448	1.344	1.321	1.346	1.395	1.46	1.563
298.15 K	1.675	1.515	1.404	1.32	1.279	1.281	1.295	1.336	1.413

CCC(=O)c1ccccc1 + CCOCCO
viscosity [mPa·s], 101 kPa
Settings	x1 = 0.0756	x1 = 0.1554	x1 = 0.2397	x1 = 0.3291	x1 = 0.4239	x1 = 0.5246	x1 = 0.6319	x1 = 0.7464	x1 = 0.8688
303.15 K	1.562	1.555	1.547	1.54	1.532	1.526	1.522	1.517	1.515
308.15 K	1.466	1.464	1.462	1.461	1.461	1.461	1.462	1.464	1.466
313.15 K	1.366	1.369	1.372	1.376	1.381	1.387	1.394	1.401	1.41
318.15 K	1.279	1.285	1.291	1.3	1.309	1.32	1.331	1.343	1.357

CC(C)NC(C)C + CC(C)O
viscosity [mPa·s], 100 kPa
Settings	298.15 K	303.15 K	308.15 K
x1 = 0.0499	1.789	1.565	1.397
x1 = 0.1033	1.565	1.393	1.253
x1 = 0.1405	1.437	1.28	1.153
x1 = 0.2062	1.245	1.108	1.004
x1 = 0.2498	1.123	1.012	0.922
x1 = 0.303	1.003	0.904	0.825
x1 = 0.4121	0.809	0.735	0.677
x1 = 0.4955	0.698	0.639	0.593
x1 = 0.5984	0.592	0.551	0.513
x1 = 0.6974	0.52	0.498	0.466
x1 = 0.7902	0.468	0.447	0.421
x1 = 0.8632	0.434	0.419	0.398
x1 = 0.9067	0.412	0.401	0.382
x1 = 0.9459	0.397	0.388	0.3694
